# Where “and” joins values, the source holds several entries; their conditions need not be identical. Equal entries are not always repeated. Where two headings read alike, the source gives them in different places.
# Assays:
# [1] = test system: LeTx-induced cytotoxicity of RAW264.7 cells; test: cells; settings: Mus musculus
# [2] = test system: U266 cells; test: Cell growth inhibition (resazurin, 48 hours), U266; settings: Homo sapiens
# [3] = biological target: T1, trypsin-like activity of purified rabbit 20S proteasomes (Oryctolagus cuniculus, UniProt G1SWK8); settings: under the conditions tested
# T1 sequence (G1SWK8 1-271): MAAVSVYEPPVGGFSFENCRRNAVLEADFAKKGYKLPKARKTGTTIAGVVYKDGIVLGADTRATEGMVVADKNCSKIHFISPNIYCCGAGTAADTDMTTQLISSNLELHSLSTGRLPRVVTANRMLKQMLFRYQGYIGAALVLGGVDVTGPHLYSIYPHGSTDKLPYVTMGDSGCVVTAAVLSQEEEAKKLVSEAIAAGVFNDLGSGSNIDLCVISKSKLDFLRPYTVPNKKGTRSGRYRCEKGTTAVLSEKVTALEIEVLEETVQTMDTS
# [4] = test system: HL-60 cells; test: Cell growth inhibition (resazurin, 48 hours), HL-60
# Text: (§1) The DNA binding agent Mitoxantrone was included as a control, as HL-60/MX2 cells are reported to be resistant to this chemotherapeutic agent (Harker W. G. et al. 1989).
# [5] = test system: HT-29 cells; test: Cell growth inhibition (resazurin, 48 hours), HT-29; assay type: cell-based; settings: Homo sapiens
# [6] = test system: OVCAR-3 cells; test: Cell growth inhibition (resazurin, 48 hours), OVCAR-3; assay type: cell-based, human
# [7] = test system: NCI-H292 cells; test: Cell growth inhibition (resazurin, 48 hours), NCI-H292; assay type: cell-based, human; settings: Homo sapiens
# [8] = test system: PC-3 cells; test: Cell growth inhibition (resazurin, 48 hours), PC-3; assay type: cell-based, human
# [9] = test system: B16-F10 cells; test: Cell growth inhibition (resazurin, 48 hours), B16-F10; assay type: cell-based, mouse; settings: Mus musculus
# [10] = test system: RPMI 8226 cells; test: Cell growth inhibition (resazurin, 48 hours), RPMI 8226
# [11] = test system: MES-SA/Dx5 cells; test: cells
# [12] = test system: HL-60/MX2 cells; test: cells
# Text: as §1
# [13] = test system: MDA-MB-231 cells; test: Cell growth inhibition (resazurin, 48 hours), MDA-MB-231; assay type: cell-based; settings: Homo sapiens
# [14] = test system: NF-κB-mediated luciferase activity in HEK293 NF-κB/Luc cells; test: NF-κB-mediated luciferase reporter gene assay; assay type: cell-based, human; settings: for EC50: Homo sapiens; for luciferase activity upon TNF-α stimulation: pretreatment of NF-κB/Luc 293 cells
# Method: (§2) The HEK293 NF-κB/luciferase reporter cell line is a derivative of the human embryonic kidney cell line (ATCC; CRL- 1573) and carries a luciferase reporter gene under the regulation of 5×NF-κB binding sites. […] When performing the luciferase assay, the DMEM basal medium was replaced with phenol-red free DMEM basal medium and the G418 was omitted.
# For NF-κB-mediated luciferase assays, HEK293 NF-κB/luciferase cells were seeded at 1.5×10^4 cells/well in 90 μl phenol-red free DMEM complete medium into Corning 3917 white opaque-bottom tissue culture plates. […] This dilution series was further diluted 40× in appropriate culture medium and ten μl aliquots were added to the test wells in triplicate resulting in final test concentrations ranging from 1 μM to 320 pM. […] For Formula II-19, a 127 μM starting dilution was made in 100% DMSO and the final test concentrations ranging from 317 nM to 0.1 nM. […] After 1 hr pretreatment, 10 μl of a 50 ng/ml TNF-α solution, prepared in the phenol-red free DMEM medium was added, and the plates were incubated for an additional 6 hr.
# NF-κB inducible luciferase activity was measured at 6 hours.
# as §2, with “CRL-1573)” for “CRL- 1573)”
# For NF-κB-mediated luciferase assays, HEK293 NF-κB/luciferase cells were seeded at 1.5×10^4 cells/well in 90 μl phenol-red free DMEM complete medium into Corning 3917 white opaque-bottom tissue culture plates. For Formula II-2, Formula II-4 and Formula II-5A, a 400 μM starting dilution was made in 100% DMSO and this dilution was used to generate a 8-point half log dilution series. This dilution series was further diluted 40× in appropriate culture medium and ten μl aliquots were added to the test wells in triplicate resulting in final test concentrations ranging from 1 μM to 320 pM. […] After 1 hr pretreatment, 10 μl of a 50 ng/ml TNF-α solution, prepared in the phenol-red free DMEM medium was added, and the plates were incubated for an additional 6 hr.
# The relative luciferase units (RLU) were measured by using a Fusion microplate fluorometer (Packard Bioscience).
# [15] = biological target: T1, trypsin-like activity of purified rabbit 20S proteasomes; test: biochemical
smiles,measurement,setting,value
"C[C@@]12OC(=O)[C@]1([C@@H](O)[C@@H]1C=CCCC1)NC(=O)[C@@H]2CCCl [Formula II-16, Salinosporamide A]",EC50,"[1]; RAW264.7, read-out: average EC50, viability of LeTx-treated cells",< 4 nM
same,EC50,"[2]; U-266, 48 h, read-out: EC50 (nM), mean ± SD",4.7 ± 0.7 nM
same,EC50,"[2]; U-266, read-out: U266 EC50 (nM)",4.1 nM
same,inhibit the trypsin-like activity of the 20S proteasome,[3],able to inhibit
same,EC50,"[4]; Homo sapiens, HL-60, Table 8, HL-60",27 nM
same,% cytotoxicity,"[4]; Table 8, HL-60",88% and 91%
same,EC50,"[4]; Table 8, HL-60",30 nM
same,EC50,"[5]; HT-29, 48 h",47 nM
same,EC50,"[5]; HT-29, 48 h, read-out: EC50 (nM), mean ± SD",40 ± 26 nM
same,EC50,"[6]; Homo sapiens, OVCAR-3, 48 h",69 nM
same,EC50,"[6]; Homo sapiens, OVCAR-3, 48 h, read-out: EC50 (nM), mean ± SD",49 ± 31 nM
same,EC50,"[7]; NCI-H292, 48 h",97 nM
same,EC50,"[7]; NCI-H292, 48 h, read-out: EC50 (nM), mean ± SD",66 ± 29 nM
same,EC50,"[8]; Homo sapiens, PC-3, 48 h, PC3, 48h, panel of b226",78 nM
same,EC50,"[8]; Homo sapiens, PC-3, 48 h, read-out: EC50 (nM), mean ± SD, Table 2, PC-3, human prostate adenocarcinoma, 48 hours",64 ± 26 nM
same,EC50,"[8]; Homo sapiens, PC-3, Table 6, PC-3 (n = 2)",31 nM
same,% cytotoxicity,"[8]; Table 6, PC-3 (n = 2)",88% and 89%
same,EC50,"[8]; Table 6, PC-3 (n = 2)",25 nM
same,EC50,"[9]; B16-F10, 48 h",33 nM
same,EC50,"[9]; B16-F10, 48 h, read-out: EC50 (nM), mean ± SD",47 ± 20 nM
same,EC50,"[10]; Homo sapiens, RPMI-8226, 48 h, read-out: EC50 (nM), mean ± SD",8.6 ± 1.9 nM
same,EC50,"[10]; Homo sapiens, RPMI-8226, read-out: EC50 (nM), mean ± SD",10 ± 3 nM
same,"% cytotoxicity, mean ± SD","[10]; Table 6, RPMI 8226 (n = 5)",94 ± 1%
same,"% cytotoxicity, mean ± SD","[10]; Table 9, RPMI 8226, 48 hour",94 ± 0%
same,EC50,"[11]; Homo sapiens, MES-SA/Dx5, read-out: EC50 (nM), mean ± SD",23 ± 1 nM
same,"% cytotoxicity, mean ± SD","[11]; Table 7, MES-SA/Dx5",92 ± 2%
same,EC50,"[12]; Homo sapiens, HL60/MX2, Table 8, HL-60/MX2",28 nM
same,% cytotoxicity,"[12]; Table 8, HL-60/MX2",84% and 89%
same,EC50,"[12]; Table 8, HL-60/MX2",25 nM
same,EC50,"[13]; MDA-MB-231, 48 h",67 nM
same,EC50,"[13]; MDA-MB-231, 48 h, read-out: EC50 (nM), mean ± SD",87 ± 40 nM
same,EC50,"[14]; HEK293, 6 h, read-out: calculated EC50 for inhibition of NF-κB/luciferase activity",~0.007 µM
same,luciferase activity upon TNF-α stimulation,[14],dose-dependent decrease
C[C@@]12OC(=O)[C@]1([C@@H](O)C1CCCCC1)NC(=O)[C@@H]2CCCl [Formula II-2],EC50,"[1]; RAW264.7, read-out: EC50 (nM), inhibition of RAW 264.7 cell cytotoxicity mediated by anthrax lethal toxin",14 nM
same,EC50,"[2]; U-266, Table 13, U266",32 nM
same,EC50,"[2]; U-266, read-out: U266 EC50 (nM), Table 15, mean EC50",36 nM
same,inhibit the trypsin-like activity of the 20S proteasome,[3],able to inhibit
same,EC50,"[4]; Homo sapiens, HL-60, read-out: EC50 (nM) HL-60, Table 17",237 nM
same,EC50,"[4]; read-out: EC50 (nM) HL-60, Table 17",176 nM
same,EC50,[5]; HT-29,129 ± 21 nM
same,EC50,"[6]; Homo sapiens, OVCAR-3, Table 13, OVCAR-3",188 nM
same,EC50,"[6]; Table 13, OVCAR-3",251 nM
same,EC50,"[7]; NCI-H292, Table 13, NCI-H292",322 nM
same,EC50,"[8]; Homo sapiens, Table 13, PC-3, read-out: EC50",284 ± 110 nM
same,EC50,"[9]; B16-F10, Table 13, B16-F10",194 nM
same,EC50,"[10]; Homo sapiens, RPMI-8226, Table 13, RPMI 8226",49 nM
same,EC50,"[10]; Homo sapiens, RPMI-8226, read-out: RPMI 8226 EC50 (nM), Table 15, mean EC50",47 nM
same,EC50,"[10]; Table 13, RPMI 8226",45 nM
same,EC50,"[11]; Homo sapiens, MES-SA/Dx5, read-out: EC50 (nM) MES-SA/Dx5, Table 16",220 nM
same,Fold change,"[11]; Table 16, ratio of EC50 values (MES-SA/Dx5:MES-SA)",1.0 fold
same,EC50,"[11]; read-out: EC50 (nM) MES-SA/Dx5, Table 16",138 nM
same,EC50,"[12]; Homo sapiens, HL60/MX2, read-out: EC50 (nM) HL-60/MX2, Table 17",142 nM
same,Fold change,"[12]; Table 17, ratio of EC50 values (HL-60/MX2:HL-60)",0.7 fold
same,EC50,"[12]; read-out: EC50 (nM) HL-60/MX2, Table 17",133 nM
same,EC50,[13]; MDA-MB-231,121 ± 23 nM
same,EC50,[15],0.23 µM
same,EC50,"[14]; HEK293, representative experiment, Example 43 (FIG. 44, 45), read-out: calculated EC50 to inhibit NF-κB inducible luciferase activity",0.073 µM
same,luciferase activity upon TNF-α stimulation,[14],dose-dependent decrease
